Data reported in patent US20170049676A1, “TOPICAL COMPOSITION” (Conopco, Inc., d/b/a UNILEVER, priority 2014, published 2017).
Where two headings read alike, the source gives them in different places. Each block holds one compound with its values, some of them ahead of it.

Tests used:
heme oxygenase 1 (HO-1) [1] = assay: Heme oxygenase 1 (HO-1) ELISA on lysates of adult fibroblasts treated with isothiocyanates (Example 2); format: cell-based; conditions: primary human adult dermal fibroblast cells; for HO-1 (pg HO-1 per μg protein): 24 hours, vehicle control 179 ± 28; for production of HO-1 (in words): either at 1 or 2 μM
Method: Primary human adult dermal fibroblast cells were routinely cultured and passaged in Dulbecco's Modified Eagle Medium (DMEM) supplemented with 10% foetal bovine serum (FBS), known as complete medium. Cells were plated out in 12-well tissue culture plates at a seeding density of 20,000 cells per well in 1 ml of low serum medium (DMEM supplemented with 1% FBS) and incubated at 37° C. in 5% CO2 for 96-120 hours before addition of the test samples.
The isothiocynates (all from Sigma-Aldrich Company) sulforaphane, allyl isothiocyanate (AITC), alpha-naphthyl isothiocyanate (NITC), phenethyl isothiocyanate (PEITC) and benzyl isothiocyanate (BITC) were prepared in dimethyl sulphoxide (DMSO) and diluted in DMEM supplemented with 1% FBS to a final concentration of 1 uM and 2 uM. Dermal fibroblasts were treated with 1 ml/well of the test samples for a period of 24 hours. A solvent vehicle was included in each experimental plate.
After 24 hours the cell monolayer was washed with 1 ml of Dulbecco's Phosphate Buffered Saline (DPBS) per well and lysed with 400 μl of RIPA cell lysis buffer per well. The RIPA cell lysis buffer consisted of 150 mM NaCl, 1% v/v Nonidet-P40 (Igepal CA603 from Fluke 56741), 0.1% w/v sodium dodecyl sulphate (SDS) and 0.1% w/v sodium deoxycholate in 50 mM Tris-HCL buffer at pH 7.6. Protease inhibitor tablets were added to the lysis buffer immediately prior to use, at the manufacturer's recommended level. The plates received one freeze thaw cycle to ensure complete cell lysis. The lysates were subsequently clarified by scraping the samples off the plates with a pipette tip, centrifuging at 13,000 rpm for 10 minutes and transferring the supernatant into a 96 well microtitre plate. The clarified lysates were stored at −20° C. until needed.
The heme oxygenase 1 (HO-1) protein concentration of each cell lysate was assayed using the Human HO-1 ELISA Kit from Assay Designs (ADI-EKS-800, Enzo Life Sciences, UK) according to the manufacturer's instructions. Briefly, […] were diluted 1 in 10 in sample diluent, and 100 μl transferred to the pre-coated anti-HO-1 immunoassay plate. A 7-point recombinant HO-1 standard curve, ranging from 25 to 0.39 ng/ml, was also prepared in sample diluent. The immunoassay plate was incubated at room temperature for 30 minutes, washed six times with Wash Buffer, and incubated for a further 60 minutes at room temperature with 100 μl/well of anti-HO-1 antibody solution. The plate was washed as above and incubated for 30 minutes at room temperature with 100 μl/well of horseradish peroxidase (HRP)-conjugate solution. Again the plate was washed as above and 100 μl/well of 3,3′,5,5′-tetramethylbenzidine (TMB)-substrate added to each well for 15 minutes at room temperature in the dark. Following the addition of 100 μl/l well of stop solution, the absorbance was read at 450 nm on a microplate reader (Dynex MRX) and the unknown lysate levels of HO-1 were extrapolated from the standard curve. […]

heme oxygenase 1 (HO-1) [2] = assay: Heme oxygenase 1 (HO-1) ELISA on lysates of fibroblasts treated 24 hours, normalised to total protein (Example 1); format: cell-based, human; conditions: 8.4 mM controls
Method: Primary human neonatal dermal fibroblast cells were cultured and passaged in Dulbecco's Modified Eagle Medium (DMEM) supplemented with 10% foetal bovine serum (FBS), known as complete medium. Cells were routinely plated out in 24-well tissue culture plates at a seeding density of 40,000 cells per well in 1 ml complete medium, and incubated at 37° C. in 5% CO2 for 48 hours before addition of the test solutions.
After removal and storage of the tissue culture supernatant, the cell monolayer was washed with 1 ml of Dulbecco's Phosphate Buffered Saline (DPBS) per well and lysed with 200 μl cell lysis buffer per well. The cell lysis buffer consisted of 0.5% w/w Triton™ X100 (octyl phenol ethoxylate) and 1 mM ethylenediaminetetraacetic acid (EDTA) in phosphate buffer solution (PBS) at pH 7.2. Protease inhibitor tablets were added to the lysis buffer immediately prior to use, at the manufacturer's recommended level. The plates received one freeze thaw cycle to ensure complete cell lysis. The lysates were subsequently clarified by scraping the samples off the plates with a pipette tip and passing them through an Acrowell™ filter plate (Pall Corporation) using an Acroprep™ vacuum manifold (Pall Corporation) into a 96 well microwell plate. The clarified lysates were stored at −20° C. until needed.
A set of eight standard solutions ranging from 0 to 800 μg/ml protein was prepared from the supplied 2 mg/ml bovine serum albumin (BSA) stock solution. 10 μl of standard or cell lysate was added to duplicate wells of a flat-bottomed, 96-well microtitre plate. The reagent solution was prepared according to the kit instructions from 50 parts reagent A and 1 part reagent B. 200 μl of the final reagent was added to each well of the microtitre plate. The plate was mixed, covered and incubated at 37° C. for 30 minutes and absorbance read at 540 nm. A protein standard curve was constructed and used to determine the protein concentration of each individual cell lysate.
The heme oxygenase 1 (HO-1) protein concentration of each cell lysate was assayed using the Human Total HO-1/HMOX1 DuoSet IC assay (R&D Systems Europe Ltd) according to the manufacturer's instructions. This DuoSet IC ELISA ([…]) contains the basic components required for the development of sandwich ELISAs to measure HO-1/HMOX1 (heme oxygenase (decycling) 1 which is a human gene that encodes for the enzyme heme oxygenase 1)/HSP32 (heat shock protein 32 (Hsp32), also known as heme oxygenase 1 (HO-1)) in cell lysates. An immobilized capture antibody specific for HO-1/HMOX1/HSP32 binds both phosphorylated and unphosphorylated HO-1/HMOX1/HSP32. […]

[3] = test system: primary human neonatal dermal fibroblast cells
[4] = test system: myrosinase from Raphanus sativus var. longipinnatus (daikon); conditions: cited from earlier work; for reaction velocity, % of that with 500 μM ascorbic acid: 150 μM sinigrin; for effect on enzymic activity (in words): sinigrin as substrate, pH 6.0
[5] = test system: enzyme from Salix alba (white willow); conditions: cited from earlier work
[6] = test system: enzymes from several other Brassica species; conditions: cited from earlier work
[7] = test system: myrosinase in partially purified extracts of six crucifers; conditions: cited from earlier work
[8] = test system: rat basophilic leukemia (RBL-2H3) cells; conditions: cited from earlier work
[9] = test system: primary human neonatal dermal fibroblast cells; assay: Cytotoxicity assay, ApoTox-Glo Triplex Assay (dead-cell protease, bis-AAF-R110)

Structure (SMILES): S=C=NCCc1ccccc1 [Phenethyl isothiocyanate (PEITC), Phenethyl isothiocyanate]
HO-1 (pg HO-1 per μg protein) (heme oxygenase 1 (HO-1) [1]; 1 μM): 429 ± 49 pg HO-1 per μg protein | HO-1 (pg HO-1 per μg protein) (heme oxygenase 1 (HO-1) [1]; 2 μM): 668 ± 101 pg HO-1 per μg protein | production of HO-1 (in words) (heme oxygenase 1 (HO-1) [1]): increase the production of HO-1

Structure (SMILES): C=CCN=C=S [Allyl isocyanate control, Allyl isothiocyanate]
Normalised HO-1 (vehicle = 100) (heme oxygenase 1 (HO-1) [2]; dilution 1/50): 335.46 ± 54.80 | Normalised HO-1 (vehicle = 100) (heme oxygenase 1 (HO-1) [2]; dilution 1/100): 383.74 ± 30.02 | HO-1 (pg HO-1 per μg protein) (heme oxygenase 1 (HO-1) [1]; 1 μM): 207 ± 13 pg HO-1 per μg protein | HO-1 (pg HO-1 per μg protein) (heme oxygenase 1 (HO-1) [1]; 2 μM): 243 ± 26 pg HO-1 per μg protein | production of HO-1 (in words) (heme oxygenase 1 (HO-1) [1]): increase the production of HO-1 | cytotoxicity to the fibroblast cells (in words) [3]: Neither myrosinase, nor the glucosinolate sinigrin, nor allyl isothiocyanate induce cytotoxicity on their own | Cytotoxicity (RFU × 1000) ([3]; human, 24 h, 0.168 mM): 66.71 ± 4.63 RFU × 1000 | inhibition of activity (in words) ([4]; concentrations as high as 1 mM): did not significantly inhibit activity

Structure (SMILES): O=C1O[C@H]([C@@H](O)CO)C(O)=C1O [ascorbic acid]
reaction velocity, % of that with 500 μM ascorbic acid ([4]; 0.75 mM ascorbic acid): 90% | reaction velocity, % of that with 500 μM ascorbic acid ([4]; 1.0 mM ascorbic acid): 73% | effect on enzymic activity (in words) [4]: enzymic activity was enhanced greatly | activation by ascorbate [5]: 2-3 fold | activation by ascorbate [6]: 8-12 fold | ascorbate concentrations for maximal activation of myrosinase [7]: 0.7 to 5.0 mM

production of HO-1 (in words) (heme oxygenase 1 (HO-1) [1]): increase the production of HO-1
Structure (SMILES): C[S+]([O-])CCCCN=C=S (stereo not drawn) [Sulforaphane]
HO-1 (pg HO-1 per μg protein) (heme oxygenase 1 (HO-1) [1]; 1 μM): 280 ± 15 pg HO-1 per μg protein | HO-1 (pg HO-1 per μg protein) (heme oxygenase 1 (HO-1) [1]; 2 μM): 309 ± 45 pg HO-1 per μg protein

Structure (SMILES): O=c1c(O)c(-c2ccc(O)c(O)c2)oc2cc(O)cc(O)c12 [Quercetin]
Nrf2 translocation (in words) ([8]; RBL-2H3 cells): translocate Nrf2 from cytoplasm into nucleus | mast cell degranulation and release of histamine (in words) [8]: inhibit mast cell degranulation and subsequent release of histamine

Structure (SMILES): C=CCC(=NOS(=O)(=O)O)S[C@@H]1O[C@H](CO)[C@@H](O)[C@H](O)[C@H]1O [Sinigrin control, sinigrin (2-propenyl or allyl glucosinolate)]
Normalised HO-1 (vehicle = 100) (heme oxygenase 1 (HO-1) [2]; dilution 1/50): 168.32 ± 73.93 | Normalised HO-1 (vehicle = 100) (heme oxygenase 1 (HO-1) [2]; dilution 1/100): 49.08 ± 12.98 | Cytotoxicity (RFU × 1000) ([9]; 8.4 mM controls in complete medium, dilution 1/50, second series (untreated cells 18.63)): 80.94 ± 39.75 RFU × 1000 | cytotoxicity to the fibroblast cells (in words) ([9]; extract without heat treatment, single components on their own at comparable levels): Neither myrosinase, nor the glucosinolate sinigrin, nor allyl isothiocyanate induce cytotoxicity on their own

Structure (SMILES): S=C=Nc1cccc2ccccc12 [Alpha-naphthyl isothiocyanate (NITC), Alpha-naphthyl isothiocyanate]
HO-1 (pg HO-1 per μg protein) (heme oxygenase 1 (HO-1) [1]; 1 μM): 195 ± 25 pg HO-1 per μg protein | HO-1 (pg HO-1 per μg protein) (heme oxygenase 1 (HO-1) [1]; 2 μM): 191 ± 31 pg HO-1 per μg protein | production of HO-1 (in words) (heme oxygenase 1 (HO-1) [1]): increase the production of HO-1

Structure (SMILES): S=C=NCc1ccccc1 [Benzyl isothiocyanate (BITC), Benzyl isothiocyanate]
HO-1 (pg HO-1 per μg protein) (heme oxygenase 1 (HO-1) [1]; 1 μM): 381 ± 50 pg HO-1 per μg protein | HO-1 (pg HO-1 per μg protein) (heme oxygenase 1 (HO-1) [1]; 2 μM): 730 ± 170 pg HO-1 per μg protein | production of HO-1 (in words) (heme oxygenase 1 (HO-1) [1]): increase the production of HO-1

Structure (SMILES): O=S(=O)(O)O [sulphate]
effect on enzymic activity (in words) [4]: inhibited activity competitively
